{
  "source": "ChEMBL document CHEMBL5465560",
  "about": "“Selectivity Literature for EUbOPEN Chemogenomic Library” (2024)",
  "key": {"[1]": {"molecular_target": "T1, Myosin light chain kinase family member 4 (Homo sapiens) (UniProt Q86YV6)", "T1 sequence (whole entry)": "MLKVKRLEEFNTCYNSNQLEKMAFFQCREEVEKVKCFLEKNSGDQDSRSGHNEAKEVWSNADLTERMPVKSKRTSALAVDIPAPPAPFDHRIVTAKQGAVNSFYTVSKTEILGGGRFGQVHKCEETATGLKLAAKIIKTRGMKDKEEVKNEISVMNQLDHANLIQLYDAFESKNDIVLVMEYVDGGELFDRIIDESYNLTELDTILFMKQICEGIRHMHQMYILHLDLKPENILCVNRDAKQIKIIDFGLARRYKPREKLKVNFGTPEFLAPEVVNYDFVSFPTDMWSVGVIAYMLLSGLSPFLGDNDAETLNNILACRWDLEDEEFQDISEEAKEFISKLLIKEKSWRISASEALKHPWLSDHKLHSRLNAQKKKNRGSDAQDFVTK", "test": "Selectivity interaction (KinomeScan (DiscoverX)) EUB0001550a MYLK4", "details": "at 1 µM"}, "[2]": {"molecular_target": "T2, Serine/threonine-protein kinase Nek8 (Homo sapiens) (UniProt Q86SG6)", "T2 sequence (whole entry)": "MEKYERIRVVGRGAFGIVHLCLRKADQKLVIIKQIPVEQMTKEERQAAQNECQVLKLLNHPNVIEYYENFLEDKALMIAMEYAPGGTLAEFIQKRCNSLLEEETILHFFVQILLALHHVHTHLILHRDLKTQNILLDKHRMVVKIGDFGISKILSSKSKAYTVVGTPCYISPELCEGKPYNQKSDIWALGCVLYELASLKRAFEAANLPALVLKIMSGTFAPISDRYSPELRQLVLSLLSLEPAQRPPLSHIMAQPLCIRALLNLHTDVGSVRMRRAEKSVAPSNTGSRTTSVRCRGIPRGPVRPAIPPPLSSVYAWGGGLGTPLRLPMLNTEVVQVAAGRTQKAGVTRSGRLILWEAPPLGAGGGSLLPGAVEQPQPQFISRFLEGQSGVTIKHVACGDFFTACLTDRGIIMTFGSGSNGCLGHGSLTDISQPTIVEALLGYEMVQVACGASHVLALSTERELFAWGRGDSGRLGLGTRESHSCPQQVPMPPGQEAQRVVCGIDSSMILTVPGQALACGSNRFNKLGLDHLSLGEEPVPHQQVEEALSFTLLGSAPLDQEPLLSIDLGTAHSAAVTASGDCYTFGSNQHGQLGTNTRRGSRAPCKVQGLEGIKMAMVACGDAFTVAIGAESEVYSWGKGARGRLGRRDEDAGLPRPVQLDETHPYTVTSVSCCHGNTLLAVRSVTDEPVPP", "test": "Selectivity interaction (LanthaScreen Eu Kinase Binding Assay) EUB0001632a NEK8", "details": "at 10 µM"}, "[3]": {"molecular_target": "T3, Serine/threonine-protein kinase TNNI3K (Homo sapiens) (UniProt Q59H18)", "T3 sequence (whole entry)": "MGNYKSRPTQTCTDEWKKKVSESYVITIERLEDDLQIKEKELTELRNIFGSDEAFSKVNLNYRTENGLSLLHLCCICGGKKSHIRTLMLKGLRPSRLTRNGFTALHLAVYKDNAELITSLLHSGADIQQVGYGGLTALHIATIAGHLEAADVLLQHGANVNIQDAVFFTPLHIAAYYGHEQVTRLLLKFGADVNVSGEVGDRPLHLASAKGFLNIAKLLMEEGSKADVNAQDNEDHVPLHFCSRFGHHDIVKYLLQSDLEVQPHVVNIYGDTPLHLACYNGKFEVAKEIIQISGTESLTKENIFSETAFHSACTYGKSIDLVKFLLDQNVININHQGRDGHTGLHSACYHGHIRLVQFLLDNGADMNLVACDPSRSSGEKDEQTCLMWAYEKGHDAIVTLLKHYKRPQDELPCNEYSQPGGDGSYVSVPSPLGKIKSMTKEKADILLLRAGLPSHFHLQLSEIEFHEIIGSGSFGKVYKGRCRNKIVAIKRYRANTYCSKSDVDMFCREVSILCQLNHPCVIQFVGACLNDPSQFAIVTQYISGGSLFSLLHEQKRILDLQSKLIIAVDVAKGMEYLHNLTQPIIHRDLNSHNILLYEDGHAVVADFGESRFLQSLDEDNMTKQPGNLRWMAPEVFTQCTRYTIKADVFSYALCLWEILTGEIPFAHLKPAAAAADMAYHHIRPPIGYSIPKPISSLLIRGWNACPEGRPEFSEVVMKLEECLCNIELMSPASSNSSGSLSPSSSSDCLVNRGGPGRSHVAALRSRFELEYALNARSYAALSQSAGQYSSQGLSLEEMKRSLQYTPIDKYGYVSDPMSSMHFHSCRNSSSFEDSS", "test": "Selectivity interaction (KinomeScan (DiscoverX)) EUB0001049a TNNI3K", "details": "at 1 µM"}, "[4]": {"molecular_target": "T4, cGMP-dependent protein kinase 1 (Homo sapiens) (UniProt Q13976)", "T4 sequence (whole entry)": "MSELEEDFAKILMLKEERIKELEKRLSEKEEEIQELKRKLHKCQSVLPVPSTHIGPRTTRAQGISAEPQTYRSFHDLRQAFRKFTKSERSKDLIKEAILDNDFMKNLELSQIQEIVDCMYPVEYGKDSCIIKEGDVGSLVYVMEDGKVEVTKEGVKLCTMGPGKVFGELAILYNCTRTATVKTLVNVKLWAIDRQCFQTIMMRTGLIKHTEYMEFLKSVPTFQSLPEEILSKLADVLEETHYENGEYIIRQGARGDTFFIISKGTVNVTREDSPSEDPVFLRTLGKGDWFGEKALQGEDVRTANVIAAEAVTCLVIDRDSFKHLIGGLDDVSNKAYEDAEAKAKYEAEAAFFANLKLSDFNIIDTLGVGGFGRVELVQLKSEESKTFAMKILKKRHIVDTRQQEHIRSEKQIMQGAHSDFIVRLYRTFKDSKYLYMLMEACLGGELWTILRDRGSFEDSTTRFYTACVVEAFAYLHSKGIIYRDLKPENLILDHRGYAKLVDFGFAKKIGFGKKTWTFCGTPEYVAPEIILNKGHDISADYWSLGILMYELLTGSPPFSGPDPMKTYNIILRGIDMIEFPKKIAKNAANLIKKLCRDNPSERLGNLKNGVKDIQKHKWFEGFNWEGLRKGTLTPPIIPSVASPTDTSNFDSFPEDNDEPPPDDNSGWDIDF", "test": "Selectivity interaction (KinomeScan (DiscoverX)) EUB0000045b PRKG1"}, "[5]": {"molecular_target": "Cyclin-dependent kinase 13 (Homo sapiens, UniProt Q14004)", "sequence (Q14004 whole entry, looked up)": "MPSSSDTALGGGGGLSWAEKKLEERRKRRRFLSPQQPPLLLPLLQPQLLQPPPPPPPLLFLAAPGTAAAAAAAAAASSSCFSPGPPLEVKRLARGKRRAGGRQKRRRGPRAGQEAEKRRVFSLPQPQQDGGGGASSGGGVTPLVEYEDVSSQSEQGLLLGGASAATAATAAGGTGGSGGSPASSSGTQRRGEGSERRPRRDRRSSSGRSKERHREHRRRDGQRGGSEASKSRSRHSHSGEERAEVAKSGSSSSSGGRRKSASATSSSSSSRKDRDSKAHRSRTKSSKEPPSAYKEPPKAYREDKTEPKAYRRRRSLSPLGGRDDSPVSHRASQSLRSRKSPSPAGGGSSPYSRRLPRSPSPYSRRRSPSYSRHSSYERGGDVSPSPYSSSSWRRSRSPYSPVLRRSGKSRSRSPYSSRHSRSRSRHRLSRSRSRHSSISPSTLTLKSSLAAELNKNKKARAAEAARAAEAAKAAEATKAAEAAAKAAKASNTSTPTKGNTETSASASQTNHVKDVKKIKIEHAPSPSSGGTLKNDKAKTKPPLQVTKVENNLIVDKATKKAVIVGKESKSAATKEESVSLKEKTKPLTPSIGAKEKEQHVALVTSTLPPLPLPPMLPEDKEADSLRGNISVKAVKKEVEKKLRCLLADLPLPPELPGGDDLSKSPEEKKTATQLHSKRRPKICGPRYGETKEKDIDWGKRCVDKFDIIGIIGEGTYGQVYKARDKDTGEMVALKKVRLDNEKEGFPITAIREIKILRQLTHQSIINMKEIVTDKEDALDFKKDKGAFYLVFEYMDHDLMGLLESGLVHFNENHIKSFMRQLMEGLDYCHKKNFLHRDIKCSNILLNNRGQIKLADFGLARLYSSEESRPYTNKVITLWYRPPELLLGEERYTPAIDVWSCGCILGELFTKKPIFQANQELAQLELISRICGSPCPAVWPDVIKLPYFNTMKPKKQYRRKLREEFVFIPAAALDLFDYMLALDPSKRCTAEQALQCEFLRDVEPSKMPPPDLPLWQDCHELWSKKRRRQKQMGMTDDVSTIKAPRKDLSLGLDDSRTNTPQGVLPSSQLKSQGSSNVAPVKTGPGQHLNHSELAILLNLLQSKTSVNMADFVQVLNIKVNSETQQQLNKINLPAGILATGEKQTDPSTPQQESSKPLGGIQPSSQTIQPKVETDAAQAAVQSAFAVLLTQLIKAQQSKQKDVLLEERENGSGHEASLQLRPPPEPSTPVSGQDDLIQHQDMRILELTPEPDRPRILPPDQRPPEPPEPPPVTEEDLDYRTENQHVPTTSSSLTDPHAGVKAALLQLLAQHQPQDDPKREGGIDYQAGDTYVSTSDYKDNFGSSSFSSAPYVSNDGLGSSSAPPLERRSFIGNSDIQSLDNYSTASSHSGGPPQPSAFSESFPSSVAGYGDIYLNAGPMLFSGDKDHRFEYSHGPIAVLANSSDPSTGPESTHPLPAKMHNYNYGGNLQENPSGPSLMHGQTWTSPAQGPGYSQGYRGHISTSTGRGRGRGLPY", "test": "Selectivity interaction (Ambit KINOMEscan and KiNATiv profiling in Jurkat cells) EUB0000090b CDK13", "assay_type": "cell-based", "details": "at 1 µM"}},
  "data": [
    {"smiles": "CN(C)CC#Cc1ccc2[nH]c3c(c2c1)-c1nc(N)ncc1CCC3", "values": [
      {"measurement": "% of control", "setting": "[1]", "result": 1.8, "unit": "%"}
    ]},
    {"smiles": "Cn1cc(-n2cnc3c(NCc4nc5cc(Cl)c(Cl)cc5[nH]4)nc(N4CCOCC4)nc32)cn1", "values": [
      {"measurement": "% of inhibition", "setting": "[2]", "result": -38.3, "unit": "%"}
    ]},
    {"smiles": "COc1cc(Nc2nc(C)cc(-c3cnn4nc(OC)ccc34)n2)cc(C(F)(F)F)c1", "values": [
      {"measurement": "% of control", "setting": "[3]", "result": 100, "unit": "%"}
    ]},
    {"smiles": "C=CC(=O)Nc1cc(-n2c(=O)ccc3cnc4ccc(-c5ccc(NS(C)(=O)=O)cc5)cc4c32)ccc1C", "values": [
      {"measurement": "% of control", "setting": "[4]; at 1 µM", "result": 87, "unit": "%"},
      {"measurement": "% of control", "setting": "[4]; at 10 µM", "result": 100, "unit": "%"}
    ]},
    {"smiles": "CN(C)C/C=C/C(=O)Nc1ccc(C(=O)N2CCCC(Nc3ncc(Cl)c(-c4c[nH]c5ccccc45)n3)C2)cc1", "note": "(stereo unspecified)", "values": [
      {"measurement": "% of control", "setting": "[5]", "result": 2.8, "unit": "%"}
    ]}
  ]
}
